Test results as given in publication PMC3095640, “Potent Host-Directed Small-Molecule Inhibitors of Myxovirus RNA-Dependent RNA-Polymerases” (PLoS ONE, 2011).
Like-named read-outs stand apart in the source and are kept apart here.

Key:
PBMCs = assay: Metabolic activity of primary human PBMCs; format: cell-based; settings: 24 hours exposure
Procedure: (§1) A non-radioactive cytotoxicity assay (CytoTox 96 Non-Radioactive Cytotoxicity Assay, Promega) was employed to determine the metabolic activity of cell after exposure to the compound. In a 96-well plate format, 10,000 cells per well were incubated at 37°C for 24 hours in four replicates per concentration tested in the presence of compound in two-fold dilutions starting at 75 µM. Substrate was then added and color development measured at 490 nm using a BioRad plate reader. Values were calculated according to the formula [% toxicity = 100−((experimental-background)/(maximum(vehicle treated)-background)*100)]. Values were plotted in dose-response curves and, if applicable, CC50 concentrations calculated.

[1] = Stability in human plasma; settings: 120-minute incubation, 37°C
[2] = test system: para- and orthomyxovirus family members; assay: organism not typed; format: cell-based
[3] = Cytotoxicity (metabolic activity), NIH-3T3; format: cell-based, Rodent-mouse; settings: mouse, NIH-3T3 cells, highest concentration assessed 75 µM
Procedure: as §1

[4] = Cytotoxicity (metabolic activity), Vero-Slam cells; format: cell-based; settings: African green monkey, highest concentration assessed 75 µM, read-out: CC50, Toxicity, Metabolic activity
Procedure: as §1

[5] = Metabolic stability in human liver S9 fractions; format: in vitro ADME
Procedure: JMN3-003 was mixed with liver S9 fractions (protein concentration 2.5 mg/ml) from pooled mixed gender humans (XenoTech) at a final concentration of 1 µM and reactions initiated by the addition of cofactors (1.14 mM NADPH, 1.43 mM glucose-6-phosphate, 1.43 mM uridine 5′-diphosphoglucuronic acid, 9.42 mM potassium chloride, 2.28 mM magnesium chloride) in 100 mM potassium phosphate buffer, pH 7.4. Samples were incubated at 37°C with mixing, aliquots removed after 0, 15, 30 and 60 minutes and subjected to reversed-phase LC-MS/MS (Applied Biosystems API 4000 QTRAP with heated nebulizer; Turbo IonSpray for JMN5-166) analysis. Peak areas were measured to calculate half life and percent of input compound remaining according to the formulas t1/2 = (−0.693/slope of linear regression analysis of log transformed peak area versus) and % input remaining = (peak area of test compound at tx/peak area of test compound at t0)*100. Positive controls to assess the metabolic competency of the liver S9 fractions were 7-Ethoxycoumarin, Propranolol, and Verapamil (Sigma), which were analyzed in parallel to the article. […] Aliquots were removed at distinct time points as indicated and analyzed by LC-MS/MS with detection of the compound at 254 nm. Values are expressed as percent of compound remaining at each time relative to the amount of that compound present at the starting time point.

cdc2-cyclin B kinase = assay: Immunoblot of cdc2-cyclin B kinase phosphorylation status; format: cell-based; settings: phospho-cdc2 (Tyr15)
Influenza A/WSN [6] = assay: Immunodetection of virus-encoded influenza A/WSN M2; format: cell-based; settings: 100 nM
Procedure: Aliquots with equal total concentrations of cleared lysates (20,000×g; 10 min; 4°C) were mixed with 2x-urea buffer (200 mM Tris, pH 6.8; 8 M urea; 5% sodium dodecyl sulfate (SDS); 0.1 mM EDTA; 0.03% bromphenol blue; 1.5% dithiothreitol) and denatured for 25 min at 50°C. Samples were then fractionated on 10% SDS-polyacrylamide gels, blotted to polyvinylidene difluoride (PVDF) membranes (Millipore) and subjected to enhanced chemiluminescence detection (Pierce) using specific antisera directed against phosphorylated or non-phosphorylated cdc2-cyclin B kinase (Cell Signaling Technology), GAPDH (Abcam), the cytosolic tail of the MeV F protein [81], or influenza A/WSN virus M2 (Thermo Scientific). Immunostained PVDF membranes were developed using a ChemiDoc XRS digital imaging system (Bio-Rad) and horseradish peroxidase conjugated anti-species IgG (mouse or rabbit) antibodies. For densitometry, signals were quantified using the QuantityOne software package (Bio-Rad).

SOI Influenza A/Mexico = assay: Virus yield reduction assay, SOI influenza A/Mexico; format: cell-based, swine-origin influenza virus isolate S-OIV Mexico; settings: genome copy numbers of released progeny particles by TaqMan RT-PCR
MeV-Alaska [7] = assay: Cell priming: pre-treatment, wash-out, then MeV-Alaska infection; format: cell-based, measles virus; settings: 1.0 µM for 60 minutes
MeV-Alaska [8] = assay: Immunodetection of virus-encoded MeV-F; format: cell-based, measles virus; settings: 100 nM
Influenza A/WSN [9] = assay: Virus yield reduction assay, influenza A/WSN; format: cell-based, influenza A strain WSN (H1N1)
[10] = test system: different established cell lines (HeLa, A549, HepG2, Vero-Slam, MDCK); assay: Metabolic activity of different established cell lines; format: cell-based, human, primate, canine; settings: at 75 µM, 24 hours
Procedure: as §1

MeV-Alaska [11] = format: cell-based, measles virus; settings: 100 nM, 40 hours
HPIV3 = assay: microbe, parasite or virus in culture; format: cell-based, human parainfluenzavirus type 3; settings: Human respirovirus 3; titered through plaque assaying
[12] = test system: MeV H and F mediated cell-to-cell fusion; assay: MeV glycoprotein-mediated cell-to-cell fusion assay; parameters: species or system measles virus; settings: microscopic and luciferase reporter-based
Influenza A/WSN [13] = assay: Quantitation of influenza A/WSN antigenome and released progeny genome copies; format: cell-based; settings: MDCK cells, 24 hours
MeV-Alaska particles = assay: Virus pre-incubation (virucidal activity) assay; format: cell-based, measles virus; settings: 1.0 µM for 60 minutes, diluted to 1.0 nM
SOI Influenza A/Texas = assay: Virus yield reduction assay, SOI influenza A/Texas; format: cell-based, swine-origin influenza virus isolate S-OIV Texas; settings: genome copy numbers of released progeny particles by TaqMan RT-PCR
[14] = Cytotoxicity (metabolic activity), MEL B16; format: cell-based, Rodent-mouse; settings: mouse, MEL B16 cells, highest concentration assessed 75 µM
Procedure: as §1

MeV-Alaska [15] = assay: Post-infection time-of-addition assay; format: cell-based, measles virus; settings: 1.0 µM added at times post-infection

In the case of COc1ccc(-n2c(SC(C)C(=O)Nc3ccc(C)cc3Cl)nc3ccccc32)cc1 (centres unmarked) [JMN3-003], the “metabolic activity of primary human PBMCs” value (PBMCs) is reported as “unaffected”, the “stability in human plasma” value [1] is reported as “virtually unaffected” and the EC50 ([2]; range depending on the target virus, read-out: active concentrations (anti-myxovirus activity)) is reported as 10 to 80 nM. For the same molecule, the EC50 ([2]; unidentified influenza virus, read-out: average EC50 concentrations) was ~40 nM, the CC50 at 24 h [3] was > 75000 nM and the CC50 at 24 h [4] was > 75000 nM. For the same molecule, the half-life at 1 µM ([5]; both sexes, human, liver S9 fractions, pH 7.4, human liver S9 fractions, up to 60 minutes, LC-MS/MS, calculated/extrapolated, read-out: half-life (t1/2)) was ~3.33 h, the “input material remaining intact” value ([5]; human S-9 fractions, 60-minute exposure, 1 µM) was “approximately 80%” and the “phosphorylation status of cdc2-cyclin B kinase” value (cdc2-cyclin B kinase) was “increased steady state levels of phosphorylated cdc2-cyclin B kinase”. The “expression of virus-encoded proteins, orthomyxovirus infection” value (Influenza A/WSN [6]) was “fully blocked”, the EC50 (SOI Influenza A/Mexico) was 10 ± 3 nM and the “inhibitory effect after cell pre-treatment and wash-out” value (MeV-Alaska [7]) was “could not detect any substantial inhibitory effect”. For the same molecule, the “expression of virus-encoded proteins, paramyxovirus infection” value (MeV-Alaska [8]) was “fully blocked”, the EC50 (Influenza A/WSN [9]; Influenza A virus, WSN, HT-1080, host cell HT1080 (Human), read-out: EC50, Inhibition of Influenza A/WSN) was 60 ± 2 nM and the EC50 (Influenza A/WSN [9]; Influenza A virus, WSN, MDCK, read-out: EC50, Inhibition of Influenza A/WSN) was 10 nM. For the same molecule, the EC50 (Influenza A/WSN [9]; Influenza A virus, WSN, NIH3T3, host cell NIH-3T3 (Rodent-mouse), read-out: EC50, Inhibition of Influenza A/WSN) was > 10000 nM, the EC50 (Influenza A/WSN [9]; Influenza A virus, WSN, genome copy numbers of released progeny particles by TaqMan RT-PCR, read-out: EC50, Influenza A/WSN) was 10 ± 8 nM and the EC50 (Influenza A/WSN [9]; Influenza A virus, WSN, host cell BHK-21 (Rodent-Syrian hamster), read-out: EC50, Inhibition of Influenza A/WSN) was 80 ± 10 nM. For the same molecule, the EC50 (Influenza A/WSN [9]; Influenza A virus, WSN, host cell CHO (Rodent-Chinese hamster), read-out: EC50, Inhibition of Influenza A/WSN) was 70 ± 10 nM, the EC50 (Influenza A/WSN [9]; Influenza A virus, WSN, host cell DF-1 (Avian-chicken), read-out: EC50, Inhibition of Influenza A/WSN) was > 10000 nM and the EC50 (Influenza A/WSN [9]; Influenza A virus, WSN, host cell HeLa (Human), read-out: EC50, Inhibition of Influenza A/WSN) was 20 ± 10 nM. The EC50 (Influenza A/WSN [9]; host cell MEL B16 (Rodent-mouse), read-out: EC50, Inhibition of Influenza A/WSN) was > 10000 nM, the “metabolic activity of different established cell lines” value [10] was “unchanged” and the “reduction of viral mRNA and antigenome copy numbers relative to vehicle” value (MeV-Alaska [11]) was > 100 fold. For the same molecule, the EC50 (HPIV3) was 80 ± 10 nM, the “MeV glycoprotein-mediated cell-to-cell fusion” value [12] was “extensive membrane fusion indistinguishable from that seen in vehicle-treated controls” and the “drop in relative viral antigenome levels” value (Influenza A/WSN [13]) was > 100 fold. The “reduction in genome copies of released progeny virions” value (Influenza A/WSN [13]) was > 10,000 fold, the “antiviral effect of preincubation of viral particles (virucidal activity)” value (MeV-Alaska particles) was “lacked any appreciable antiviral effect” and the EC50 (SOI Influenza A/Texas) was 40 ± 10 nM. For the same molecule, the CC50 at 24 h [14] was > 75000 nM and the “inhibition profile in time-of-addition experiment” value (MeV-Alaska [15]) was “very closely resembled the profile of the AS-136A RdRp blocker class”.
